Molecules are shown by their SMILES. Some results are limits rather than exact numbers.

As a reminder, the melting point is the temperature of the solid-liquid transition.

In the case of `O=C(c1cc(Br)ccc1[N+](=O)[O-])C(Br)C(Br)c1cccc(Br)c1` (stereo not given), the melting point lay in the range of 153 to 155 °C.

Compound `CS(=O)c1nnc2n1C=Cc1ccccc1C2` (stereo not given) showed a melting point of 176 to 177 °C.

`CCC(=O)c1[nH]c(=O)[nH]c1CC` returned a melting point of 212 to 213 °C.

Take `CC(C)c1cccc(C(C)C)c1NC(=O)Nc1ccccc1CCc1cc(C(C)(C)C)c(O)c(C(C)(C)C)c1`: the melting point was 209 to 210 °C.

As for `NC(=O)c1cc(-c2ccc(Cl)cc2)on1`, the melting point is 224 to 225 °C.

For the compound `COc1cc2c(-c3cc4cc(Cl)cnc4[nH]3)cn(C)c2cc1OC`, the melting point is 282 °C.

On to `Clc1cnc(N2CCNCC2)c(Cl)n1`, for which the melting point lay within 89 to 97 °C.

With `C#Cc1ccc(C(=O)NC(C#N)OCC)cc1` (stereo not given), the melting point was in the range of 104 to 106 °C.

Regarding `CC(=O)c1cnc2c(c1)oc(=O)n2CCc1ccncc1`, the melting point was in the range of 148 to 150 °C.

Turning to `CN1C(=O)Cc2cc(C3=NNC(=O)C4CCC34)ccc21` (stereo not given), the melting point was in the range of 256 to 259 °C.

`CSc1ccc2ccc3ccccc3c(=O)c2c1` displayed a melting point of 66.5 to 67.5 °C.

`O=C(Nc1ccccc1C(F)(F)F)c1ccccc1` displayed a melting point of 146 °C.

Turning to `ClCCCCOc1ccccc1/C=C/c1nc2ccccc2s1`, the melting point was 98 to 100 °C.

Take `CCCCNS(=O)(=O)c1ccc2[nH]c(=O)c(=O)[nH]c2c1`: the melting point lay in the range of 257 to 262 °C.

Turning to `COc1ccc(C(=O)Nc2ccc(C(C)(C)c3noc(COc4ccccc4)n3)cc2)cc1OC`, the melting point lay within 165 to 167 °C.

Turning to `COc1cc(OCC(=O)O)c(C)cc1SCc1ccc(-c2ccc(C(F)(F)F)cc2)cc1`, the melting point was in the range of 170 to 171 °C.

Compound `O=C(OCOCOC(=O)c1c(F)cccc1F)c1c(F)cccc1F` gave a melting point of 52 to 53 °C.

Compound `O=C1CCCCc2cc(OCc3ccccc3)c(O)cc21` came in with a melting point of 127 to 128 °C.

In the case of `CCCCCCCCCCCCOc1ccc(C2SCCCS2)cc1OCCCCCCCCCCCC`, the melting point lay in the range of 73 to 75 °C.

Compound `CO/C=C(/C(=O)OC)c1ccccc1Oc1cc(Cl)nc(Cl)n1` displayed a melting point of 88 to 90 °C.

`CCOC(=O)C(=[N+]=[N-])C(=O)c1cc(I)cnc1Cl` displayed a melting point of 84 to 85 °C.

Turning to `CC1CC(=O)NN=C1c1ccc(NC(=O)OC(C)C2CC2)cc1` (stereo not given), the melting point is 223 to 224 °C.

In turn, `CC(=O)SC(CC(=O)c1ccccc1Cl)C(=O)O` (stereo not given) came in with a melting point of 115 to 116 °C.

For `CON(C)C(=O)C1(C)CCc2c(C)c(O)c(C)c(C)c2O1` (stereo not given), the melting point was in the range of 139 to 140 °C.

Consider `CCc1c(C(C)C)nc(C(C)C)c(C(C)O)c1-c1ccc(F)cc1O` (stereo not given), for which the melting point is 190 to 191 °C.

The compound `Cn1c(Cc2cccc(C(F)(F)F)c2)nc2c(-c3cccc(C(=O)NCCO)c3)cccc21` came in with a melting point of 147 to 148 °C.

For the compound `C=CC=C1SC(=S)N(CC(=O)O)C1=O`, the melting point was in the range of 144 to 146 °C.

Consider `O=C(CNC(=O)c1ccc(C(=O)C=C(c2cc(Cl)cc(C(F)(F)F)c2)C(F)(F)F)c2ccccc12)NCC(F)(F)F`, for which the melting point was in the range of 174 to 177 °C.

The compound `Cc1ccc(C)n1-c1ccc(C(=O)N(C)C)cc1` gave a melting point of 102 to 104 °C.

In turn, `CN(c1cccc2cc(C3=NCC(CC(N)=O)S3)[nH]c12)S(=O)(=O)c1cccs1` (stereo not given) gave a melting point of 193 to 194 °C.

The compound `Cc1ccccc1C(=O)Nc1ccc(C(=O)N2c3ccccc3CCc3ccccc32)cc1` registered a melting point of 112 to 118 °C.

With `CC(C)(C)C(=O)Nc1cccc(N)n1`, the melting point lay within 140 to 141 °C.

`O=C(CCCCCCC(=O)N1CCN(CC(=O)Nc2nc3ccccc3s2)CC1)NO` gave a melting point of 166 to 170 °C.

With `CCC(=O)N1CCC(NC(=O)NC2CCCCC2)CC1`, the melting point fell in the range of 177 to 179 °C.

The compound `NS(=O)(=O)Oc1cccc(C(=O)c2ccccc2)c1` gave a melting point of 72 to 74 °C.

`Cc1ccc(-c2cc(C(F)(F)F)n3cnc(-c4cccnc4)c3n2)cc1C(F)(F)F` returned a melting point of 236 °C.

As to `Cc1cc(C(O)C(=O)c2ccccc2)c(C)c(C)c1C` (stereo not given), the melting point lay within 99 to 101 °C.

As for `CCOP(=O)(OCC)c1c(-c2c(OC)ccc3ccccc23)cc2c(c1C)COC2`, the melting point was in the range of 68 to 69.9 °C.

On to `Cc1nn(-c2ccccn2)c2c1C(O)CC(C)(C)C2` (stereo not given), for which the melting point lay within 125 to 126 °C.

On to `CON=C(C)CN(C(=O)c1ccco1)c1c(C)cccc1C`, for which the melting point was in the range of 108 to 109 °C.

As to `Cn1ccc2cc(-c3ccc(S(=O)(=O)n4ccc(/C=C/C(=O)NO)c4)cc3)ccc21`, the melting point fell in the range of 177 to 179 °C.

Take `CCOC(=O)c1oc2c([N+](=O)[O-])c(O)ccc2c1C`: the melting point was in the range of 186 to 188 °C.

With `O=C(c1ccc(F)c(F)c1)N1CCCC(c2noc(-c3ncc[nH]3)n2)C1` (stereo not given), the melting point was in the range of 148 to 149 °C.

`COC(=O)c1cc2cc(OC)c(OC)cc2c(-c2ccnc(-n3c(=O)cc(NCCCn4ccnc4)c4ccccc43)c2)c1C(=O)OC` came in with a melting point of 142 to 148 °C.

`Cc1cc(Br)c2c(c1)/C(=N\NC(N)=O)C(=O)N2CCN(C(C)C)C(C)C` had a melting point of 189 to 192 °C.

Take `CN(C)C(=O)N1CCc2ccc(Nc3nc4c(-c5cc(Cl)ccc5OCC(F)F)cccn4n3)cc2CC1`: the melting point lay within 98 to 99 °C.

In turn, `CC(C)(C)c1cc(-c2nc3n(c2C#N)CCS3)cc(C(C)(C)C)c1O` displayed a melting point of 207 to 208 °C.

As for `O=P(O)(O)OC(Cn1cncn1)(Cn1cncn1)c1ccc(F)cc1F`, the melting point is 223 to 224 °C.

With `CCOC(=O)c1c(C(C)C)c[nH]c1C`, the melting point lay in the range of 67 to 68.5 °C.

For `O=C(Cc1ccccc1)c1cccc(OCc2ccccc2)c1`, the melting point lay within 58 to 60 °C.

`COC(=O)CN1C(=O)CN=C(c2ccccc2Cl)c2ccccc21` returned a melting point of 166 to 168 °C.

With `CCOC(=O)c1ncn2c1[C@@H]1CCN1C(=O)c1c-2cccc1C(F)(F)F`, the melting point is 183 to 184 °C.

The compound `Cc1cc2n(C)c3cc(Cl)ncc3c(=O)n2n1` registered a melting point of more than 300 °C.

`CCCc1ccc(-n2ncc(C#N)c2N(C(C)=O)C(C)=O)c(Cl)c1` gave a melting point of 110 to 112 °C.

As for `CCN1C(=O)C(C(=O)Nc2cccc(C(=O)Nc3ccccc3)c2)c2cc(C(C)=O)ccc21` (stereo not given), the melting point fell in the range of 173 to 175 °C.

With `Cc1cccc(-c2[nH]c(C(C)C)nc2-c2ccc(F)c(-c3ccc(S(C)(=O)=O)nc3)c2)n1`, the melting point was in the range of 102 to 105 °C.

With `CCOC(=O)c1c(C=O)c2c(Cl)cc(Cl)cc2n1S(=O)(=O)c1ccccc1`, the melting point was determined as 226 °C.

`COc1c(S(=O)C(F)(F)F)c(C#N)nn1-c1c(Cl)cc(C(F)(F)F)cc1Cl` (stereo not given) showed a melting point of 136 to 137 °C.

`OC1(Cl)C=CC=CC1(O)Cl` (stereo not given) had a melting point of 113 to 114 °C.

`CCCCCCCCCCCCCCCCCCOc1cc(OCCCOc2ccc(C(C)(C)C)cc2)cc(N(CC(=O)OC)CC(=O)OC)c1` displayed a melting point of 56 to 58 °C.

With `NC1C(=O)N(CC2C3CC4CC(C3)CC2C4)c2ccccc2N(c2ccccc2)C1=O` (stereo not given), the melting point fell in the range of 209 to 210 °C.

In turn, `Nc1cc(Oc2ccc(NC(=O)Nc3ccc(Cl)c(C(F)(F)F)c3)cc2)ncn1` yielded a melting point of 197 to 198 °C.

`O=S(=O)(NCCc1ccc(C(O)CCCO)cc1)c1ccc(Br)cc1` (stereo not given) returned a melting point of 107 to 108 °C.

The compound `CC=CCn1c(C)c(C)c2cnnc(OCc3cccs3)c21` yielded a melting point of 72 to 75 °C.

The compound `CNc1ccc(Nc2nc(N3CCOCC3)nc(-n3c(C(F)F)nc4c(OC)cccc43)n2)cn1` had a melting point of 218 to 221 °C.

The compound `CCOc1nc(O)cc(O)n1` registered a melting point of more than 250 °C.

Compound `CCOc1nc(CCO)nc(N2CCc3ccccc3CC2)c1C#N` gave a melting point of 108 to 111 °C.

For the compound `CC(C)(C)C(=O)CCSC(=S)Nc1ccc(Cl)cn1`, the melting point was 111 °C.

Regarding `Cc1nc(-c2ccccc2)n(-c2ccc(S(N)(=O)=O)cn2)n1`, the melting point is 203 to 204 °C.

For the compound `O=C1Nc2ccccc2S(=O)(=O)c2cc(C(F)(F)F)ccc21`, the melting point lay within 240 to 241 °C.

The compound `O=C(NCc1cccs1)c1ccccc1C(c1ccc(O)cc1)c1ccc(O)cc1` returned a melting point of 109 to 111 °C.

Compound `OC(Cn1cncn1)(Cn1ncnc1C=Cc1ccc(Cl)cc1)c1ccc(Cl)cc1Cl` (stereo not given) displayed a melting point of 193 to 196 °C.

As for `CC(C)N1C(=O)[C@@H](CCO)O[C@H](c2ccccc2Cl)c2cc(Cl)ccc21` (relative stereo), the melting point fell in the range of 188 to 189 °C.

`CC1CCOC(CBr)(c2ccc(Cl)cc2Cl)O1` (stereo not given) showed a melting point of 69 to 70.5 °C.

Take `Cc1nonc1-n1cc(C(=O)O)c(=O)c2cc(F)c(N3CC[C@H](N)C3)c(F)c21`: the melting point was 169 to 170 °C.

The compound `CC(C)NC(=O)Cc1cccc(N)c1` gave a melting point of 93 to 95 °C.

On to `CCCCCCCCCCCCCCCCC12CCC3=C(CCc4cc(OC)ccc43)C1=CCC2=O` (stereo not given), for which the melting point was in the range of 55 to 56 °C.

In the case of `CCOC(=O)c1cc(-c2ccc(OC)cc2)n(-c2ccc(OC)cc2)n1`, the melting point lay in the range of 97 to 98 °C.

With `Cc1oc(-c2ccccc2)nc1COc1ccc(C=CC=O)cc1F`, the melting point lay in the range of 133 to 134 °C.

For `Cn1ncc2nc3cccc(F)c3c(Cl)c21`, the melting point was found to be 269 °C.

With `COc1cc2oc(=O)cc(CN3CCC(OC)CC3)c2cc1OC`, the melting point is 148 to 150 °C.

Consider `O=C(O)Cc1onc(O)c1Br`, for which the melting point stood at 167 °C.

On to `CCCc1c(OCCCCCC(=O)c2ccc(O)c(O)c2)ccc(C(=O)O)c1O`, for which the melting point was in the range of 188 to 191 °C.

In the case of `COC(=O)C1=C(C=O)NC(C)=C(C(=O)OCC(C)(C)C)C1c1ccccc1C#N` (stereo not given), the melting point lay in the range of 141 to 143 °C.

`CC(C)N1CC(C(=O)c2ccc(Cc3ccc(F)cc3)s2)=C(O)C1=O` had a melting point of 138 to 139 °C.

For `COc1ccc(C(=O)Nc2c(Cl)cncc2Cl)c2c3ccccc3n(Cc3ccc(F)cc3)c12`, the melting point lay in the range of 222 to 225 °C.

As for `Cc1ncc(CS)c2c1OC(c1ccccc1)OC2` (stereo not given), the melting point lay in the range of 110 to 112 °C.

The compound `O=c1[nH]c2ncc(-c3ccc(O)cc3)nc2n1CCO` returned a melting point of 308 to 310 °C.

For `O=C1c2cc(O)ccc2OCC1n1ccnc1` (stereo not given), the melting point was in the range of 245 to 247 °C.

In turn, `O=S(=O)(CCCCl)Nc1cccc(COc2cccc3cccnc23)c1` had a melting point of 142 to 143 °C.

The record behind these values is a melting point compilation (Tetko et al.; mined from patent text by program, amines drawn as free bases though some values may be those of a salt).
